We go through 13 compounds from patent US20260355196A1, “INHIBITORS AND DEGRADERS OF PIP4K PROTEIN” (Larkspur Biosciences, Inc., priority 2023, published 2026).

Each structure is given as a SMILES string.

For this assay, the target named is T1, PIP4K2C (Homo sapiens, UniProt Q8TBX8).
T1 sequence (Q8TBX8 1-421): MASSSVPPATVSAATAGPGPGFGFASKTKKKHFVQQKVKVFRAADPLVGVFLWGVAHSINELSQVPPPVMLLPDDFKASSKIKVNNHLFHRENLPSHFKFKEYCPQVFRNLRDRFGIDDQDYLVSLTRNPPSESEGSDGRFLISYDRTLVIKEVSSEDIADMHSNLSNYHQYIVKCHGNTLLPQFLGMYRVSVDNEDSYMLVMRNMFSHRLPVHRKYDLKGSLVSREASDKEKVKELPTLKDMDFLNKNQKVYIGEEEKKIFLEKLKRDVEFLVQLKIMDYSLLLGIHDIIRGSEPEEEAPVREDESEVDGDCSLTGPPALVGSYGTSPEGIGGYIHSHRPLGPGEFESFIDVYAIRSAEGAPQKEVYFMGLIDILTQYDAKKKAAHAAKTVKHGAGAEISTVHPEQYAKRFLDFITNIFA
Put plainly: HiBiT PIP4K2C degradation assay in MOLT-4 cells (endogenous PIP4K2C C-terminally tagged with HiBiT). Type of assay: cell-based. More on the design: untagged in primary human PBMCs and monocyte-derived dendritic cells. To be noted: 24 hours incubation, MOLT-4, top concentration 10 micromolar; read-out: HiBIT-degradation MOLT4 PIP4k2C 24 hours DC50. The source says:
Example B-2: HiBiT PIP4K2C degradation assay
Materials: MOLT-4, a human T lymphoblast cell line (see https://www.atcc.org/products/crl-1582, herein incorporated by reference in its entirety), was genetically engineered using CRISPR-Cas9 by Synthego Corporation (Redwood City, CA) to C-terminally tag endogenous PIP4K2C with HiBiT peptide. Following clonal selection, genotype was confirmed by Sanger sequencing. MO LT-4 were maintained using RPMI-1640 medium from Gibco (Grand Island, NY, catalog number 11875-085) supplemented with 10% fetal bovine serum (FBS) from VWR (Philadelphia, PA, catalog number 97068-085). For HiBiT assays the cells were resuspended in RPMI-1640 medium without phenol read from Gibco (Grand Island, NY, catalog number 11835-030) supplemented with 10% FBS. Nano-Glo® HiBiT Lytic Assay System was purchased from Promega (Madison, WI, Catalog number N3030). Cell culture flasks and 384-well microplates were purchased from Corning (Glendale, AZ).
To study PIP4K2C degradation, 384-well plates were plated with a 10-point dose response curve, 3-fold dilution, in duplicate with a top starting concentration of 10 micromolar. Subsequently 22,500 cells were added to each well and incubated at 37 C in 5% C02 for 24 hours or 6 hours. At the end of the incubation time, cells were treated with the Nano-Glo® HiBiT Lytic Detection System following the manufacturer's instructions. Luminescence was measured with a PHERAstar FSX plate reader (BMG Labtech, Cary, NC). The Levenberg-Marquardt algorithm was used to fit a Hill equation to dose-response data to calculate DC50 values (see Table 6).
For the compound `O=C1CCC(n2c(=O)oc3cc(N4CCC(CN5CCC(NC(=O)[C@H]6CCC[C@@H](Nc7ncc(F)c(-c8cccc(-n9ccccc9=O)c8)n7)C6)CC5)CC4)ccc32)C(=O)N1` (relative stereo) [Compound 320, cis-N-(1-((1-(3-(2,6-dioxopiperidin-3-yl)-2-oxo-2,3-dihydrobenzo[d]oxazol-6-yl)piperidin-4-yl)methyl)piperidin-4-yl)-3-((5-fluoro-4-(3-(2-oxopyridin-1(2H)-yl)phenyl)pyrimidin-2-yl)amino)cyclohexane-1-carboxamide], the DC50 is less than 500 nM.

With `Cn1nc(C2CCC(=O)NC2=O)c2ccc(N3CCC(CN4CCC(NC(=O)[C@H]5CCC[C@@H](Nc6ncc(F)c(-c7cccc(-n8ccccc8=O)c7)n6)C5)CC4)CC3)cc21` (relative stereo) [Compound 332, cis-N-(1-((1-(3-(2,6-dioxopiperidin-3-yl)-1-methyl-1H-indazol-6-yl)piperidin-4-yl)methyl)piperidin-4-yl)-3-((5-fluoro-4-(3-(2-oxopyridin-1(2H)-yl)phenyl)pyrimidin-2-yl)amino)cyclohexane-1-carboxamide], the DC50 is less than 500 nM.

As for `Cn1nc(C2CCC(=O)NC2=O)c2ccc(N3CCC(N4CCC(CNC(=O)[C@H]5CCC[C@@H](Nc6ncc(F)c(-c7cccc(-n8ccccc8=O)c7)n6)C5)CC4)CC3)cc21` (relative stereo) [Compound 333, cis-N-((1′-(3-(2,6-dioxopiperidin-3-yl)-1-methyl-1H-indazol-6-yl)-[1,4′-bipiperidin]-4-yl)methyl)-3-((5-fluoro-4-(3-(2-oxopyridin-1(2H)-yl)phenyl)pyrimidin-2-yl)amino)cyclohexane-1-carboxamide], the half-maximal degradation concentration (DC50) is less than 500 nM.

`O=C1CCC(Nc2ccc(N3CCC(CN4CCC(NC(=O)[C@H]5CCC[C@@H](Nc6ncc(F)c(-c7cccc(-n8ccccc8=O)c7)n6)C5)CC4)CC3)c(F)c2)C(=O)N1` (relative stereo) [Compound 336, cis-N-(1-((1-(4-((2,6-dioxopiperidin-3-yl)amino)-2-fluorophenyl)piperidin-4-yl)methyl)piperidin-4-yl)-3-((5-fluoro-4-(3-(2-oxopyridin-1(2H)-yl)phenyl)pyrimidin-2-yl)amino)cyclohexane-1-carboxamide]: the DC50 was less than 500 nM.

On to `O=C1CCC(Nc2ccc(C3CCN([C@H]4CC[C@@H](CNC(=O)[C@H]5CCC[C@@H](Nc6ncc(F)c(-c7cccc(-n8ccccc8=O)c7)n6)C5)CC4)CC3)c(F)c2)C(=O)N1` (relative stereo) [Compound 337, cis-N-((cis-4-(4-(4-((2,6-dioxopiperidin-3-yl)amino)-2-fluorophenyl)piperidin-1-yl)cyclohexyl)methyl)-3-((5-fluoro-4-(3-(2-oxopyridin-1(2H)-yl)phenyl)pyrimidin-2-yl)amino)cyclohexane-1-carboxamide], for which the DC50 was less than 500 nM.

Consider `Cn1c(=O)n(C2CCC(=O)NC2=O)c2ccc(C3CCN(CC[C@H]4CC[C@H](C(=O)N5CCC(Nc6ncc(Cl)c(-c7cccc(-c8ccc(F)cc8)c7)n6)CC5)CC4)CC3)cc21` (relative stereo) [Compound 338, trans-3-(5-(1-(2-(4-(4-((5-chloro-4-(4′-fluoro-[1,1′-biphenyl]-3-yl)pyrimidin-2-yl)amino)piperidine-1-carbonyl)cyclohexyl)ethyl)piperidin-4-yl)-3-methyl-2-oxo-2,3-dihydro-1H-benzo[d]imidazol-1-yl)piperidine-2,6-dione], for which the DC50 was less than 500 nM.

As for `O=C1CCC(n2c(=O)oc3cc(N4CCN(CCC5CCN(C(=O)[C@@H]6CCC[C@H](Nc7ncc(F)c(-c8cccc(-n9ccccc9=O)c8)n7)C6)CC5)CC4)ccc32)C(=O)N1` (relative stereo) [Compound 342, cis-3-(6-(4-(2-(1-(3-((5-fluoro-4-(3-(2-oxopyridin-1(2H)-yl)phenyl)pyrimidin-2-yl)amino)cyclohexane-1-carbonyl)piperidin-4-yl)ethyl)piperazin-1-yl)-2-oxobenzo[d]oxazol-3 (2H)-yl)piperidine-2,6-dione], the DC50 is less than 500 nM.

Take `O=C1CCC(n2c(=O)oc3cc(C4CCN(CCC5(O)CCN(C(=O)[C@H]6CCC[C@@H](Nc7ncc(F)c(-c8cccc(-n9ccccc9=O)c8)n7)C6)CC5)CC4)ccc32)C(=O)N1` (relative stereo) [Compound 347, cis-3-(6-(1-(2-(1-(3-((5-fluoro-4-(3-(2-oxopyridin-1(2H)-yl)phenyl)pyrimidin-2-yl)amino)cyclohexane-1-carbonyl)-4-hydroxypiperidin-4-yl)ethyl)piperidin-4-yl)-2-oxobenzo[d]oxazol-3 (2H)-yl)piperidine-2,6-dione]: the DC50 was less than 500 nM.

For the compound `O=C1CCC(Nc2ccc(C3CCN(CCC4(O)CCN(C(=O)[C@H]5CCC[C@@H](Nc6ncc(F)c(-c7cccc(-n8ccccc8=O)c7)n6)C5)CC4)CC3)c(F)c2)C(=O)N1` (relative stereo) [Compound 348, cis-3-((3-fluoro-4-(1-(2-(1-(3-((5-fluoro-4-(3-(2-oxopyridin-1(2H)-yl)phenyl)pyrimidin-2-yl)amino)cyclohexane-1-carbonyl)-4-hydroxypiperidin-4-yl)ethyl)piperidin-4-yl)phenyl)amino)piperidine-2,6-dione], the DC50 is less than 500 nM.

With `O=C1CCC(n2c(=O)oc3cc(C4CCN([C@H]5CC[C@H](CNC(=O)[C@H]6CCC[C@@H](Nc7ncc(F)c(-c8cccc(-n9ccccc9=O)c8)n7)C6)CC5)CC4)ccc32)C(=O)N1` (relative stereo) [Compound 349, cis-trans-N-((4-(4-(3-(2,6-dioxopiperidin-3-yl)-2-oxo-2,3-dihydrobenzo[d]oxazol-6-yl)piperidin-1-yl)cyclohexyl)methyl)-3-((5-fluoro-4-(3-(2-oxopyridin-1(2H)-yl)phenyl)pyrimidin-2-yl)amino)cyclohexane-1-carboxamide], the DC50 was less than 500 nM.

In the case of `O=C1CCC(Nc2ccc(N3CCN([C@H]4CC[C@H](CNC(=O)[C@H]5CCC[C@@H](Nc6ncc(F)c(-c7cccc(-n8ccccc8=O)c7)n6)C5)CC4)CC3)c(F)c2)C(=O)N1` (relative stereo) [Compound 352, cis-N-((trans-4-(4-(4-((2,6-dioxopiperidin-3-yl)amino)-2-fluorophenyl)piperazin-1-yl)cyclohexyl)methyl)-3-((5-fluoro-4-(3-(2-oxopyridin-1(2H)-yl)phenyl)pyrimidin-2-yl)amino)cyclohexane-1-carboxamide], the half-maximal degradation concentration (DC50) is less than 500 nM.

Regarding `O=C1CCC(Nc2ccc(N3CCC(N4CCC(CNC(=O)[C@H]5CCC[C@@H](Nc6ncc(F)c(-c7cccc(-n8ccccc8=O)c7)n6)C5)CC4)CC3)c(F)c2)C(=O)N1` (relative stereo) [Compound 361, cis-N-((1′-(4-((2,6-dioxopiperidin-3-yl)amino)-2-fluorophenyl)-[1,4′-bipiperidin]-4-yl)methyl)-3-((5-fluoro-4-(3-(2-oxopyridin-1(2H)-yl)phenyl)pyrimidin-2-yl)amino)cyclohexane-1-carboxamide], the DC50 is less than 500 nM.

As for `O=C1CCC(Nc2ccc(N3CCC(CN4CCC(NC(=O)[C@H]5CC[C@H](Nc6ncc(F)c(-c7cccc(-n8ccccc8=O)c7)n6)CC5)CC4)CC3)c(F)c2)C(=O)N1` (relative stereo) [Compound 375, trans-N-(1-((1-(4-((2,6-dioxopiperidin-3-yl)amino)-2-fluorophenyl)piperidin-4-yl)methyl)piperidin-4-yl)-4-((5-fluoro-4-(3-(2-oxopyridin-1(2H)-yl)phenyl)pyrimidin-2-yl)amino)cyclohexane-1-carboxamide], the DC50 is less than 500 nM.
